# Earlier results in patent US20190046547A1, “COMPOSITIONS AND METHODS FOR TREATING CHRONIC WOUNDS” (Hackensack University Medical Center, priority 2016, published 2019).
# Tested on: infected pneumonectomy cavity
# Conditions: single case
compound,measurement,value
OC[C@H]1O[C@@](CO)(O[C@H]2O[C@H](CO)[C@@H](O)[C@H](O)[C@H]2O)[C@@H](O)[C@@H]1O [granulated sugar],adverse events,severe hyponatremia and acute renal failure
